Patent publication US20220133702A1, “CYSTIC FIBROSIS TRANSMEMBRANE CONDUCTANCE REGULATOR MODULATORS FOR TREATING AUTOSOMAL DOMINANT POLYCYSTIC KIDNEY DISEASE” (The Johns Hopkins University, priority 2020, published 2022)

Assays:
PN cells = assay: BrdU cell proliferation assay; type: cell-based, mouse; settings: 1 and 10 μM, vs DMSO-treated cells
Excerpt: FIG. 3A, FIG. 3B, FIG. 3C, and FIG. 3D show cell proliferation is reduced by VX-809. (FIG. 3A-FIG. 3B) Proliferation in kidneys of Pkd1^fl/fl; Pax8^rtTA; TetO-cre mice. Representative images of Ki67 (a cellular marker for proliferation) staining of PN21 kidney sections from DMSO- and VX-809-treated mice. Arrows indicate Ki67-positive cells. Pictures were acquired with a Zeiss microscope equipped with 20× objective. (FIG. 3C) Summary data for Ki67-positive cells. Columns represent averages±standard errors of DMSO (vehicle)-treated (n=3) and VX-809-treated (n=3) mice. Statistical analysis was performed using a two-tailed Student's t test. (FIG. 3D) Proliferation in PN cells. PN cells were treated with VX-809 or DMSO). The bromodeoxyuridine (BrdU) concentration in the cells was measured by using a BrdU cell proliferation assay kit (Millipore Sigma#2750) according to the manufacturer's protocol. Columns represent averages±SEs of the OD of BrdU at 450/550 […]. Data were analyzed using Student's t-test, with n=5-7. Methods were described previously (62). *P>0.05; **P<0.01;
A hallmark of the cysts in ADPKD is an increase in proliferation in response to cAMP. Therefore, it was determined whether VX-809 would affect proliferation.

[1] = test system: Hsp27, Hsp70, and Hsp90 in PN cells; assay: Disappearance of Hsps after translation block with cycloheximide; type: cell-based, mouse; settings: VX-809 10 μM with cycloheximide 25 μM
Description: FIG. 9A, FIG. 9B, FIG. 9C, FIG. 9D, FIG. 9E, FIG. 9F, FIG. 9G, and FIG. 9H show Hsp27, HSp70, and Hsp90 expression in PN cells treated with VX-809 and/or cycloheximide. (A) Pkd1 null (PN) cells were treated with VX-809 (10 μM) and/or with cycloheximide (25 μM) for indicated time points before being harvested for the assay. (FIG. 9A) Western blot showing expression of Hsp27, Hsp70, and Hsp90 in VX-809-(16 h), cycloheximide-treated, or control PN cells. ((FIG. 9B. (FIG. 9C, and (FIG. 9D) Columns represent averages±standard errors of Hsp27, Hsp70, and Hsp90 expression in cells treated with VX-809 and/or cycloheximide. ((FIG. 9E) Western blot showing expression of Hsp27, Hsp70, and Hsp90 in PN cells treated with VX-809+cycloheximide or control PN cells. ((FIG. 9F, FIG. 9G, and FIG. 9H) Columns represent averages±standard errors of Hsp27, Hsp70, and Hsp90 expression in cells treated only with cycloheximide or in control PN cells. Data were analyzed by non-parametric t-test. The experiments were repeated 3-5 times. *P<0.05, **P<0.01;
To gain more insight into the mechanism whereby VX-809 alters Hsp protein levels, translation was inhibited by using cycloheximide and the disappearance of the three Hsps was monitored. […] Hsp90 was reduced by approximately 25%, and Hsp27 was unchanged.

[2] = test system: caspase 3 activity in PN cells; assay: EnzChek Caspase-3 assay (apoptosis); type: cell-based, mouse; settings: 16 h
Description: Apoptosis was measured using the EnzChek Caspase-3 Assay Kit (Invitrogen #E13184). Cells were treated either with VX-809 or with DMSO at indicated concentrations for 16 h or left untreated (control). Both treated and control cells were then harvested, lysed, and assayed as described in the manufacturer's protocol. Reactions were carried out at room temperature, and fluorescence was measured in a fluorescence microplate reader (SpectraMax M3), with excitation at 496 nm and emission detection at 520 nm. Background fluorescence, determined for a no-enzyme control, has been subtracted from each value. Ac-DEVD-CHO was used as an inhibitor control (Inh-cntr1) to confirm the correlation between signal detection and caspase3-like protease activity. Data were analyzed using one-way and ANOVA multiple comparisons. n=4-5. ****P<0.0001;
Apoptosis is associated with the absence of PC1 in ADPKD. To assess whether apoptosis is directly altered by VX-809, caspase 3 activity was monitored in PN cells.

NHE3 in PN cells = assay: NHE3 expression; type: cell-based, mouse; settings: treated PN cells vs PN cells
Description: FIG. 14A and FIG. 14B show NHE3 expression in PN cells treated with VX-809.
The expression and activity of […] were evaluated. Specifically, NHE3 expression was evaluated in PN cells that were treated with VX-809. […] was also studied in PN, PH, and PN cells treated with VX-809. […] Next, NHE3 activity was evaluated in PN/PH cells or PN cells treated with VX-809. NHE3 activity was increased in PN cells treated with VX-809, as compared to PN cells (FIG. 16A). NHE3 activity was higher in control PH cells than in PN cells (FIG. 16B). […] NHE3 activity was increased in both VX-809 treated PN cells and control PH cells, as compared to control PN cells (FIG. 16C).

PC2 in Pkd1^RC/RC mice = assay: Immunoblot of PC2 protein in kidney tissue, missense model; type: in vivo, mouse; settings: treated daily from one month to 6 months
Description: The levels of PC2 protein were analyzed in two mouse models of ADPKD: Pkd1^fl/fl; Pax8^rtTA; TetO-cre, which is PC1 null, and the Pkd1^R3277C/R3277C (pkd1^RC/RC) which has a missense mutation in PC1. Pkd1^RC/RC mice develop a consistent, slowly progressing polycystic kidney disease. Pkd1^RC/RC mice were treated daily with VX-809, beginning at one month, and euthanized at 6 months.
Wild-type mice were treated without doxycycline (Wt), and Pkd1^RC/RC mice were treated with doxycycline plus DMSO (RC) or with doxycycline plus VX809 (RC+VX809), as indicated. Three mice were analyzed for each treatment.
In Pkd1^RC/RC mice, doxycycline-induced cyst formation decreases PC2 protein.

Cc1ccc(NC(=O)C2(c3ccc4c(c3)OC(F)(F)O4)CC2)nc1-c1cccc(C(=O)O)c1 [VX-809, lumacaftor]
cell proliferation (BrdU) (PN cells): significantly inhibit cell proliferation | Hsp27 level over the 8-h period [1]: unchanged | Hsp90 reduction over the 8-h period [1]: approximately 25% | Hsp70 levels over the 8-h period ([1]; vs time 0): approximately half the level observed at time 0 | caspase 3 activity [2]: small reduction | NHE3 expression (NHE3 in PN cells): significantly increased | PC2 protein expression (normalized to vinculin) (PC2 in Pkd1^RC/RC mice): higher levels of PC2 expression
